Measurements as given in patent US20240425513A1, “OXAZOLE, OXADIAZOLE, AND INDOLE DERIVATIVES FOR THE INHIBITION OF USP28” (Carmot Therapeutics, Inc., priority 2021, published 2024).

Target: His6 USP28 (Homo sapiens (Human), UniProt Q96RU2)
Assay: Ubiquitin-Rhodamine 110 assay to determine USP28 IC50
Format: biochemical
Conditions: USP28 150 pM, Ub-Rho110 41 nM, 2 h pre-incubation with enzyme, fluorescence read
Description: Example 21. Ubiquitin-Rhodamine 110 Assay to Determine USP28 IC50
Each assay was performed in a final volume of 8 μl in assay buffer containing 10 mM HEPES pH 7.3 ((1 M, pH 7.3 solution, (VWR J848), 100 mM NaCl (5 M, Corning 46-032-CV), 0.01% Triton X-100 (Sigma #T8787), 3.5 mM DTT (1 M, Sigma #43819) and 0.00375% BSA (10%, Calbiochem, #126609)). The assay buffer pH was adjusted to 7.5 using 1 N NaOH (JT Baker, #5000-03). Stock compounds were stored at −80° C. as a 25 mM in DMSO solution along with their respective 20 point 2 fold serial dilutions. For the dose responses, stock compound plates were allowed to come to room temperature the day of the assay. […] of the serial dilution series were pre stamped into assay plates (Black, high base, medium binding, Greiner #782076) for a final top screening concentration of 125 μM (DMSO final concentration=0.5%). Enzyme (His6 USP28, BostonBiochem, #E-570) concentration and incubation times were optimized for the maximal signal to background while maintaining the initial velocity conditions at a fixed substrate concentration. The final concentration of the enzyme in the assay was 150 pM. Final substrate (Ub-Rhol10, Ubiquitin-Rhodamine 110, UBPBio, #M3020) concentration was 41 nM. 2 μl of 4× enzyme was added to assay plates (pre stamped with compound) and incubated for 2 h at room temperature. […] was subsequently added to the assay plates and incubated for 2 h at room temperature. Fluorescence was then read on the Envision (Excitation 485 nm and Emission at 535 nm, Perkin Elmer).

Chain of His6 USP28 (Q96RU2 whole entry): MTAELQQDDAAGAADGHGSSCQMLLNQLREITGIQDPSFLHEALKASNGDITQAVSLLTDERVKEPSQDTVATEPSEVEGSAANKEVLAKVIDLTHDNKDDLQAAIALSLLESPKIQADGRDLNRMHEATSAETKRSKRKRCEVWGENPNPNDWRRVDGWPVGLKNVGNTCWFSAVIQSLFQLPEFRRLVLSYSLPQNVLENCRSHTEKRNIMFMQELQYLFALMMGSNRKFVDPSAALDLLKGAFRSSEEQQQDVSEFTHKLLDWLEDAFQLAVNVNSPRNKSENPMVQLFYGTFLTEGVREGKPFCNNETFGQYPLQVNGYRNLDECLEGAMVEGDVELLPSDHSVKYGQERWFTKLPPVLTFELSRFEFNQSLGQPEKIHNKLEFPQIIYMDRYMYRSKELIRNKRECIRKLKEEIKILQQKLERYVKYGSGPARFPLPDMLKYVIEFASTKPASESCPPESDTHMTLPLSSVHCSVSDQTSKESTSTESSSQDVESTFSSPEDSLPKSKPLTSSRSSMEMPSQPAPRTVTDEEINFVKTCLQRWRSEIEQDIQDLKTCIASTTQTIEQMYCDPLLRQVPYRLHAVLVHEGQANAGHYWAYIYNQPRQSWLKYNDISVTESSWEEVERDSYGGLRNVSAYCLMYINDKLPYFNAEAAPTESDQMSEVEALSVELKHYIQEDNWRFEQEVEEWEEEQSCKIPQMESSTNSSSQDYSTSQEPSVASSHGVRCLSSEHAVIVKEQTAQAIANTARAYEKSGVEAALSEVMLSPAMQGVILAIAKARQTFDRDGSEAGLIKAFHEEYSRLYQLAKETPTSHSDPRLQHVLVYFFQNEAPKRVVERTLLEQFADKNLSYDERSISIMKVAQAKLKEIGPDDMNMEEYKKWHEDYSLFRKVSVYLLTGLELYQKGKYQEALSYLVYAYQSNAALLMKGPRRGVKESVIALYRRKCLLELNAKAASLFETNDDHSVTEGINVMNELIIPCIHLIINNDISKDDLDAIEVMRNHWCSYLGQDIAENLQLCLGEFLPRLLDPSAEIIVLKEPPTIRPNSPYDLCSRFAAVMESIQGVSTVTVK

Row | IC50 [nM] | SMILES
1 | 50 to 500 | Cc1oc(Cc2cccc(Cl)c2)nc1-c1ccc(/C=C/C(=O)N[C@H]2CN[C@H](C)C2)cc1 [Compound 15, (E)-3-(4-(2-(3-Chlorobenzyl)-5-methyloxazol-4-yl)phenyl)-N-((3R,5R)-5-methylpyrrolidin-3-yl)acrylamide]
2 | > 1000 | C[C@@H]1C[C@@H](NC(=O)Cc2ccc(-c3nc(Cc4cccc(Cl)c4)no3)cc2)CN1C#N [Compound 16, 2-(4-{3-[(3-Chlorophenyl)methyl]-1,2,4-oxadiazol-5-yl}phenyl)-N-[(3R,5R)-1-cyano-5-methylpyrrolidin-3-yl]acetamide]
3 | > 1000 | C[C@@H]1C[C@@H](NC(=O)/C=C/c2cccc(-c3nc(Cc4cccc(Cl)c4)no3)c2)CN1C#N [Compound 17, (2E)-3-(3-{3-[(3-Chlorophenyl)methyl]-1,2,4-oxadiazol-5-yl}phenyl)-N-[(3R,5R)-1-cyano-5-methylpyrrolidin-3-yl]prop-2-enamide]
4 | 50 to 500 | CN(C)C(=O)c1ccc(OCc2ccc(-c3nc(Cc4cccc(Cl)c4)no3)cc2)cc1 [Compound 18, 4-((4-(3-(3-Chlorobenzyl)-1,2,4-oxadiazol-5-yl)benzyl)oxy)-N,N-dimethylbenzamide]
5 | 500 to 1000 | Cc1ccc(C(=O)NCc2ccc(-c3nc(Cc4cccc(Cl)c4)no3)cc2)cn1 [Compound 19, N-[(4-{3-[(3-Chlorophenyl)methyl]-1,2,4-oxadiazol-5-yl}phenyl)methyl]-6-methylpyridine-3-carboxamide]
6 | < 50 | Cc1oc(Cc2cccc(Cl)c2)nc1-c1ccc(COc2ccc(C(=O)N(C)C)cc2)cc1 [Compound 21, 4-((4-(2-(3-Chlorobenzyl)-5-methyloxazol-4-yl)benzyl)oxy)-N,N-dimethylbenzamide]
7 | < 50 | Cc1oc(Cc2cccc(Cl)c2)nc1-c1ccc(OCc2ccc(C(=O)N(C)C)cc2)cc1 [Compound 22, 4-((4-(2-(3-Chlorobenzyl)-5-methyloxazol-4-yl)phenoxy)methyl)-N,N-dimethylbenzamide]
8 | 50 to 500 | Cc1oc(Cc2cccc(Cl)c2)nc1-c1ccc(OCc2cc(C(=O)N(C)C)n(C)n2)cc1 [Compound 23, 3-((4-(2-(3-Chlorobenzyl)-5-methyloxazol-4-yl)phenoxy)methyl)-N,N,1-trimethyl-1H-pyrazole-5-carboxamide]
9 | < 50 | Cc1oc(Cc2cccc(Cl)c2)nc1-c1ccc(OCc2ccc(C(=O)N(C)C)cn2)cc1 [Compound 24, 6-[(4-{2-[(3-Chlorophenyl)methyl]-5-methyl-1,3-oxazol-4-yl}phenoxy)methyl]-N,N-dimethylpyridine-3-carboxamide]
10 | < 50 | Cc1oc(Cc2cccc(Cl)c2)nc1-c1ccc(OCc2ccc(C(=O)N(C)C)nn2)cc1 [Compound 25, 6-[(4-{2-[(3-Chlorophenyl)methyl]-5-methyl-1,3-oxazol-4-yl}phenoxy)methyl]-N,N-dimethylpyridazine-3-carboxamide]
11 | < 50 | Cc1oc(Cc2cccc(Cl)c2)nc1-c1ccc(OCc2ncc(C(=O)N(C)C)cn2)cc1 [Compound 26, 2-[(4-{2-[(3-Chlorophenyl)methyl]-5-methyl-1,3-oxazol-4-yl}phenoxy)methyl]-N,N-dimethylpyrimidine-5-carboxamide]
12 | < 50 | Cc1oc(Cc2cccc(Cl)c2)nc1-c1ccc(OCc2cnc(C(=O)N(C)C)cn2)cc1 [Compound 28, 5-[(4-{2-[(3-Chlorophenyl)methyl]-5-methyl-1,3-oxazol-4-yl}phenoxy)methyl]-N,N-dimethylpyrazine-2-carboxamide]
13 | 50 to 500 | Cc1oc(Cc2cnn(C)c2)nc1-c1ccc(OCc2ccc(C(=O)N(C)C)cn2)cc1 [Compound 30]
14 | 50 to 500 | Cc1oc(Cc2ccnc(Cl)c2)nc1-c1ccc(OCc2ccc(C(=O)N(C)C)cn2)cc1 [Compound 31, 6-[(4-{2-[(2-Chloropyridin-4-yl)methyl]-5-methyl-1,3-oxazol-4-yl}phenoxy)methyl]-N,N-dimethylpyridine-3-carboxamide]
15 | < 50 | Cc1oc(Cc2cccc(Cl)c2)nc1-c1ccc(OCc2ccc(C(=O)N3CCC[C@@H](C(=O)O)C3)cn2)cc1 [Compound 32, (3R)-1-{6-[(4-{2-[(3-Chlorophenyl)methyl]-5-methyl-1,3-oxazol-4-yl}phenoxy)methyl]pyridine-3-carbonyl}piperidine-3-carboxylic acid]
16 | < 50 | Cc1oc(Cc2cccc(Cl)c2)nc1-c1ccc(OCc2ccc(C(=O)N(C)C)cc2COCCO)cc1 [Compound 33, 4-((4-(2-(3-Chlorobenzyl)-5-methyloxazol-4-yl)phenoxy)methyl)-3-((2-hydroxyethoxy)methyl)-N,N-dimethylbenzamide]
17 | < 50 | CN[C@H]1CCN(C(=O)c2ccc(COc3ccc(-c4nc(Cc5cccc(Cl)c5)oc4C)cc3)nc2)C1 [Compound 35, (3S)-1-{6-[(4-{2-[(3-Chlorophenyl)methyl]-5-methyl-1,3-oxazol-4-yl}phenoxy)methyl]pyridine-3-carbonyl}-N-methylpyrrolidin-3-amine]
18 | < 50 | CN[C@@H]1CCN(C(=O)c2ccc(COc3ccc(-c4nc(Cc5cccc(Cl)c5)oc4C)cc3)nc2)C1 [Compound 36, (3R)-1-{6-[(4-{2-[(3-Chlorophenyl)methyl]-5-methyl-1,3-oxazol-4-yl}phenoxy)methyl]pyridine-3-carbonyl}-N-methylpyrrolidin-3-amine]
19 | < 50 | Cc1oc(Cc2cccc(Cl)c2)nc1-c1ccc(OCc2ccc(C(=O)N3CCC(N)CC3)cn2)cc1 [Compound 38, 1-{6-[(4-{2-[(3-Chlorophenyl)methyl]-5-methyl-1,3-oxazol-4-yl}phenoxy)methyl]pyridine-3-carbonyl}piperidin-4-amine]
20 | < 50 | CN[C@H]1CCCN(C(=O)c2ccc(COc3ccc(-c4nc(Cc5cccc(Cl)c5)oc4C)cc3)nc2)C1 [Compound 40, (3S)-1-{6-[(4-{2-[(3-Chlorophenyl)methyl]-5-methyl-1,3-oxazol-4-yl}phenoxy)methyl]pyridine-3-carbonyl}-N-methylpiperidin-3-amine]
21 | < 50 | CN[C@@H]1CCCN(C(=O)c2ccc(COc3ccc(-c4nc(Cc5cccc(Cl)c5)oc4C)cc3)nc2)C1 [Compound 41, (3R)-1-{6-[(4-{2-[(3-Chlorophenyl)methyl]-5-methyl-1,3-oxazol-4-yl}phenoxy)methyl]pyridine-3-carbonyl}-N-methylpiperidin-3-amine]
22 | 50 to 500 | CC(=O)N1CCN(C(=O)c2cc3cc(OCc4ccccc4)ccc3[nH]2)C[C@@H]1C(=O)N[C@H]1C[C@@H](C)N(C#N)C1 [Compound 42]
23 | < 50 | Cc1oc(Cc2cccc(Cl)c2)nc1-c1ccc(COc2ccc(C(=O)N3CCC(Cc4ncc[nH]4)CC3)cc2)cc1 [Compound 43, (4-((1H-Imidazol-2-yl)methyl)piperidin-1-yl)(4-((4-(2-(3-chlorobenzyl)-5-methyloxazol-4-yl)benzyl)oxy)phenyl)methanone]
24 | < 50 | Cc1oc(Cc2cccc(Cl)c2)nc1-c1ccc(COc2ccc(C(=O)N(C)CCN3CCCNC3=O)cc2)cc1 [Compound 44, 4-[(4-{2-[(3-Chlorophenyl)methyl]-5-methyl-1,3-oxazol-4-yl}phenyl)methoxy]-N-methyl-N-[2-(2-oxo-1,3-diazinan-1-yl)ethyl]benzamide]

Row | SMILES | IC50 [nM]
25 | Cc1oc(Cc2cccc(Cl)c2)nc1-c1ccc(OCc2ccc(C(=O)N3CC4CCC(C3)N4)cn2)cc1 [Compound 29, (3,8-Diazabicyclo[3.2.1]octan-3-yl)(6-((4-(2-(3-chlorobenzyl)-5-methyloxazol-4-yl)phenoxy)methyl)pyridin-3-yl)methanone] | < 50
